Measured values: patent US20080146555A1, “Uses of Kinase Inhibitors and Compositions Thereof” (GPC Biotech, Inc, priority 2004, published 2008)

Test system: HCT-116 cells
Test: Calcein AM viability assay, HCT-116
Format: cell-based
Conditions: Homo sapiens, HCT-116, non-protein adjusted, Table 4; read-out: HCT-116 viability IC50
Method: The potency of the subject kinase inhibitors, as measured by loss of cellular viability, was determined with the Calcein AM assay (Molecular Probes). Calcein AM is a substrate of intracellular esterases, which is cleaved only in viable cells to generate a fluorescent product that can be quantified with a fluorescent plate reader. The fluorescent signal is proportional to the number of viable cells, and thus loss of signal in response to the exposure of cells to the subject kinase inhibitors correlates with a loss of viability. This assay not only distinguishes cell cycle arrest, in which cells may still by viable, from loss of viability, and is thus well suited for the evaluation of the subject kinase inhibitors. A compound that is a potent cytotoxic agent may cause significant loss of cell viability in such an assay.
Cellular IC50's were determined in the human colorectal carcinoma cell line, HCT-116, and the normal human fibroblast, IMR90. Protein adjusted IC50's were also determined in HCT-116. Results of such viability assays are presented in Table 2 (HCT-116 (viability/protein adjusted) and IMR-90). IC50's (μM, non-protein adjusted) for the viability assay against HCT-116 cells are shown for further compounds of the invention in Table 4.
HCT-116 or IMR90 cells were recovered from sub-confluent plates by trypsinization and 1,000 or 4,000 cells, respectively, were plated in 24-well dishes and incubated overnight at 37° C., 5% CO2. HCT-116 cells were cultured in RPMI-1640, 10% FCS, and IMR90 cells were cultured in Minimum Essential Medium-alpha, 10% FCS. After overnight incubation to allow adherence, the media was aspirated from each well and replaced with media containing a test compound at a concentration from 0 to 250 nM, spanning a total of 7 doses. The plates were returned to the incubator and cultured for an additional 72 hours (3 days). […] After 72-hours incubation with the test compound, the cells were washed twice with 1×PBS, taking special care to remove all residual buffer.
A 5 μM Calcein AM solution was prepared by dissolving a 50 μg aliquot of Calcein (Molecular Probes catalog #C3100) in 50 μl DMSO. After the Calcein had completely dissolved (10 minutes at room temperature), it was diluted into 10 ml PBS. Calcein/PBS (0.5 ml) was added to each well. The plates were incubated for 75 minutes at 37° C. (protected from light) and the fluorescent signal was read on a fluorescent plate reader (excitation 485/20 and emission 530/25).

IC50 [µM] | SMILES
< 0.1 | O=C(Nc1cccc2c1C(=O)c1c-2n[nH]c1-c1ccc(OCCN2CCOCC2)cc1)NN1CCOCC1 [Compound A3]
< 0.1 | Cc1cc(OCCN2CCOCC2)ccc1-c1[nH]nc2c1C(=O)c1c(NC(=O)NN3CCN(C)CC3)cccc1-2 [Compound A7]
< 0.1 | Cc1cc(OCCN2CCCCC2)ccc1-c1[nH]nc2c1C(=O)c1c(NC(=O)NN3CCN(C)CC3)cccc1-2 [Compound A8]
< 0.1 | Cc1cc(OCCN2CCCN(C)CC2)ccc1-c1[nH]nc2c1C(=O)c1c(NC(=O)NN3CCN(C)CC3)cccc1-2 [Compound A9]
< 0.1 | O=C(Nc1cccc2c1C(=O)c1c-2n[nH]c1-c1ccc(O)c(CN2CCOCC2)c1)NN1CCOCC1 [Compound A10]
< 0.1 | Cc1cc(OCCn2cccn2)ccc1-c1[nH]nc2c1C(=O)c1c(NC(=O)NN3CCN(C)CC3)cccc1-2 [Compound A11]
< 0.1 | CN1CCN(NC(=O)Nc2cccc3c2C(=O)c2c(-c4ccc(OCCN5CCCC5)cc4F)n[nH]c2-3)CC1 [Compound A12]
< 0.01 | CN1CCN(CCOc2ccc(-c3n[nH]c4c3C(=O)c3c(NC(=O)NN5CCN(C)CC5)cccc3-4)c(F)c2)CC1 [Compound A13]
< 0.1 | CN1CCN(NC(=O)Nc2cccc3c2C(=O)c2c(-c4ccc(OCCN5CCCC5)c(F)c4)n[nH]c2-3)CC1 [Compound A14]
< 0.1 | CN1CCN(NC(=O)Nc2cccc3c2C(=O)c2c-3n[nH]c2-c2ccc(O)cc2)CC1 [Compound A15]
< 0.1 | CC(C)N1CCN(CCOc2ccc(-c3n[nH]c4c3C(=O)c3c(NC(=O)NN5CCOCC5)cccc3-4)c(F)c2)CC1 [Compound A16]
< 0.1 | CN1CCN(NC(=O)Nc2cccc3c2C(=O)c2c-3n[nH]c2-c2ccc(OCCn3cccn3)cc2)CC1 [Compound A17]
< 0.1 | Cc1cc(-c2[nH]nc3c2C(=O)c2c(NC(=O)NN4CCN(C)CC4)cccc2-3)ccc1OCCN1CCN(C(C)C)CC1 [Compound A18]
< 0.1 | Cc1cc(OCCN2CCN(C(C)C)CC2)ccc1-c1[nH]nc2c1C(=O)c1c(NC(=O)NN3CCN(C)CC3)cccc1-2 [Compound A19]
< 0.1 | CC(C)N1CCN(CCCOc2ccc(-c3[nH]nc4c3C(=O)c3c(NC(=O)NN5CCOCC5)cccc3-4)cc2)CC1 [Compound A20]
< 0.1 | Cc1cc(OCCCN2CCN(C(C)C)CC2)ccc1-c1[nH]nc2c1C(=O)c1c(NC(=O)NN3CCOCC3)cccc1-2 [Compound A21]
< 0.1 | CC(C)N1CCN(CCOc2ccc(-c3n[nH]c4c3C(=O)c3c(NC(=O)NN5CCOCC5)cccc3-4)cc2F)CC1 [Compound A22]
< 0.1 | CC(C)N1CCN(NC(=O)Nc2cccc3c2C(=O)c2c-3n[nH]c2-c2ccc(OCCN3CCCC3)cc2)CC1 [Compound A23]
< 0.01 | Cc1cc(-c2[nH]nc3c2C(=O)c2c(NC(=O)NN4CCOCC4)cccc2-3)ccc1OCCN1CCN(C(C)C)CC1 [Compound A24]
< 0.01 | Cc1cc(-c2[nH]nc3c2C(=O)c2c(NC(=O)NN4CCOCC4)cccc2-3)ccc1OCCN1CCCC1 [Compound A25]
< 0.01 | CCOC(=O)CN1CCN(NC(=O)Nc2cccc3c2C(=O)c2c-3n[nH]c2-c2ccc(OCCN3CCCC3)cc2)CC1 [Compound A26]
< 0.1 | O=C(Nc1cccc2c1C(=O)c1c(-c3ccc(OCCN4CCOCC4)c(F)c3)n[nH]c1-2)NN1CCOCC1 [Compound A27]
< 0.1 | O=C(Nc1cccc2c1C(=O)c1c(-c3ccc(OCCN4CCOCC4)cc3Cl)n[nH]c1-2)NN1CCOCC1 [Compound A28]
< 0.1 | Cc1cc(OCCN2CCCC2)ccc1-c1[nH]nc2c1C(=O)c1c(NC(=O)NN3CCOCC3)cccc1-2 [Compound A29]
< 0.1 | COc1cc(-c2[nH]nc3c2C(=O)c2c(NC(=O)NN4CCOCC4)cccc2-3)ccc1OCCN1CCCC1 [Compound A31]
< 0.1 | CC(C)C(N)C(=O)OCCN1CCN(NC(=O)Nc2cccc3c2C(=O)c2c-3n[nH]c2-c2ccc(OCCN3CCCC3)cc2)CC1 (stereo not drawn) [Compound A33]
< 0.1 | CN(C)C(=O)COc1ccc(-c2[nH]nc3c2C(=O)c2c(NC(=O)NN4CCOCC4)cccc2-3)cc1 [Compound A34]
